Data published in PubChem BioAssay AID2060888 (Molecular Pharmacology Branch, DTP, NCI, 2025).

Tested on: 695427-040-R-J1-PDC complex spheroid viability
Test: Anticancer human tumor 695427-040-R-J1-PDC patient-derived colon adenocarcinoma cell line growth inhibition [RAS]
Settings: for IC50: curve of first compound; for viability, T/C: stronger effect = lower value
Method in brief: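 Tumour cells grown as complex spheroids with HUVEC endothelial cells and mesenchymal stem cells, treated with RAS pathway inhibitor combinations. Each agent spans half-log steps from near clinical Cmax, or 10 microM where Cmax is unknown.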

[1] = second compound 0.000949 µM, first compound 0.00316 µM
[2] = second compound 0.000949 µM, first compound 0.01 µM
[3] = second compound 0.000949 µM, first compound 0.0316 µM
[4] = second compound 0.000949 µM, first compound 0.1 µM
[5] = second compound 0.003 µM, first compound 0.00316 µM
[6] = second compound 0.003 µM, first compound 0.01 µM
[7] = second compound 0.003 µM, first compound 0.0316 µM
[8] = second compound 0.003 µM, first compound 0.1 µM
[9] = second compound 0.00949 µM, first compound 0.00316 µM
[10] = second compound 0.00949 µM, first compound 0.01 µM
[11] = second compound 0.00949 µM, first compound 0.0316 µM
[12] = second compound 0.00949 µM, first compound 0.1 µM
[13] = second compound 0.03 µM, first compound 0.00316 µM
[14] = second compound 0.03 µM, first compound 0.01 µM
[15] = second compound 0.03 µM, first compound 0.0316 µM
[16] = second compound 0.03 µM, first compound 0.1 µM
[17] = second compound 0.0949 µM, first compound 0.00316 µM
[18] = second compound 0.0949 µM, first compound 0.01 µM
[19] = second compound 0.0949 µM, first compound 0.0316 µM
[20] = second compound 0.0949 µM, first compound 0.1 µM
[21] = second compound 0.3 µM, first compound 0.00316 µM
[22] = second compound 0.3 µM, first compound 0.01 µM
[23] = second compound 0.3 µM, first compound 0.0316 µM
[24] = second compound 0.3 µM, first compound 0.1 µM
[25] = second compound 0.000949 µM, first compound 0.316 µM
[26] = second compound 0.000949 µM, first compound 1 µM
[27] = second compound 0.003 µM, first compound 0.316 µM
[28] = second compound 0.003 µM, first compound 1 µM
[29] = second compound 0.00949 µM, first compound 0.316 µM
[30] = second compound 0.00949 µM, first compound 1 µM
[31] = second compound 0.03 µM, first compound 0.316 µM
[32] = second compound 0.03 µM, first compound 1 µM
[33] = second compound 0.0949 µM, first compound 0.316 µM
[34] = second compound 0.0949 µM, first compound 1 µM
[35] = second compound 0.3 µM, first compound 0.316 µM
[36] = second compound 0.3 µM, first compound 1 µM
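Also: viability read after seven days of drug exposure.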
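For viability, T/C in this document: 100% = DMSO vehicle control viability.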

`CC(C)n1nc(-c2ccc3oc(N)nc3c2)c2c(N)ncnc21` + CCn1c(-c2cc(N3CCN(C)CC3)cnc2C(C)OC)c2c3cc(ccc31)-c1csc(n1)CC(NC(=O)C1CC1C)C(=O)N1CCCC(N1)C(=O)OCC(C)(C)C2 showed an IC50 (second compound 0.000949 µM) of 71.9 nM, an IC50 (second compound 0.003 µM) of over 100 nM and an IC50 (second compound 0.00949 µM) of 34.2 nM. The IC50 (second compound 0.03 µM) was 4.03 nM, the IC50 (second compound 0.0949 µM) was under 0.316 nM and the IC50 (second compound 0.3 µM) was under 0.316 nM. The viability, T/C (second compound 0.000949 µM, first compound 0.000316 µM) was 100%, the viability, T/C (second compound 0.000949 µM, first compound 0.001 µM) was 86.4% and the viability, T/C [1] was 80.3%. For the same molecule, the viability, T/C [2] was 81.2%, the viability, T/C [3] was 68.6% and the viability, T/C [4] was 42%. For the same molecule, the viability, T/C (second compound 0.003 µM, first compound 0.000316 µM) was 98.5%, the viability, T/C (second compound 0.003 µM, first compound 0.001 µM) was 84.8% and the viability, T/C [5] was 71.8%. The viability, T/C [6] was 68.1%, the viability, T/C [7] was 66.5% and the viability, T/C [8] was 51.1%. For the same molecule, the viability, T/C (second compound 0.00949 µM, first compound 0.000316 µM) was 93.3%, the viability, T/C (second compound 0.00949 µM, first compound 0.001 µM) was 68.5% and the viability, T/C [9] was 70%. The viability, T/C [10] was 59.1%, the viability, T/C [11] was 46.4% and the viability, T/C [12] was 46.8%. The viability, T/C (second compound 0.03 µM, first compound 0.000316 µM) was 74.3%, the viability, T/C (second compound 0.03 µM, first compound 0.001 µM) was 45.1% and the viability, T/C [13] was 55.8%. It also gave a viability, T/C [14] of 48.6%, a viability, T/C [15] of 39.2% and a viability, T/C [16] of 28.7%. The viability, T/C (second compound 0.0949 µM, first compound 0.000316 µM) was 47.6%, the viability, T/C (second compound 0.0949 µM, first compound 0.001 µM) was 38.6% and the viability, T/C [17] was 35.4%. It also gave a viability, T/C [18] of 32.8%, a viability, T/C [19] of 30% and a viability, T/C [20] of 21.3%. The viability, T/C (second compound 0.3 µM, first compound 0.000316 µM) was 41%, the viability, T/C (second compound 0.3 µM, first compound 0.001 µM) was 34.8% and the viability, T/C [21] was 27.3%. It also gave a viability, T/C [22] of 28.2%, a viability, T/C [23] of 22.6% and a viability, T/C [24] of 15.7%.
With `CCN1CCN(Cc2ccc(Nc3ncc(F)c(-c4cc(F)c5nc(C)n(C(C)C)c5c4)n3)nc2)CC1` + CCn1c(-c2cc(N3CCN(C)CC3)cnc2C(C)OC)c2c3cc(ccc31)-c1csc(n1)CC(NC(=O)C1CC1C)C(=O)N1CCCC(N1)C(=O)OCC(C)(C)C2 the IC50 (second compound 0.000949 µM) was over 1000 nM, the IC50 (second compound 0.003 µM) was over 1000 nM and the IC50 (second compound 0.00949 µM) was over 1000 nM. It also gave an IC50 (second compound 0.03 µM) of 75.3 nM, an IC50 (second compound 0.0949 µM) of under 3.16 nM and an IC50 (second compound 0.3 µM) of under 3.16 nM. The viability, T/C [1] was 94.2%, the viability, T/C [2] was 87.4% and the viability, T/C [3] was 95.4%. It also gave a viability, T/C [4] of 94.4%, a viability, T/C [25] of 92.8% and a viability, T/C [26] of 59.9%. The viability, T/C [5] was 97.9%, the viability, T/C [6] was 105% and the viability, T/C [7] was 95.7%. It also gave a viability, T/C [8] of 85.2%, a viability, T/C [27] of 83.3% and a viability, T/C [28] of 59.2%. The viability, T/C [9] was 105%, the viability, T/C [10] was 74.5% and the viability, T/C [11] was 84.2%. It also gave a viability, T/C [12] of 67.2%, a viability, T/C [29] of 67.8% and a viability, T/C [30] of 49.6%. It also gave a viability, T/C [13] of 65%, a viability, T/C [14] of 62.9% and a viability, T/C [15] of 45.4%. It also gave a viability, T/C [16] of 53.3%, a viability, T/C [31] of 47.6% and a viability, T/C [32] of 39.7%. For the same molecule, the viability, T/C [17] was 51.9%, the viability, T/C [18] was 41.2% and the viability, T/C [19] was 50.4%. For the same molecule, the viability, T/C [20] was 37%, the viability, T/C [33] was 44.4% and the viability, T/C [34] was 36.5%. The viability, T/C [21] was 37.4%, the viability, T/C [22] was 41.4% and the viability, T/C [23] was 38.6%. The viability, T/C [24] was 38.8%, the viability, T/C [35] was 42.6% and the viability, T/C [36] was 41.9%.
Work on `C[C@@H](NC(=O)c1ncnc(N)c1Cl)c1ncc(C(=O)Nc2cc(C(F)(F)F)c(Cl)cn2)s1` + CCn1c(-c2cc(N3CCN(C)CC3)cnc2C(C)OC)c2c3cc(ccc31)-c1csc(n1)CC(NC(=O)C1CC1C)C(=O)N1CCCC(N1)C(=O)OCC(C)(C)C2 yielded an IC50 (second compound 0.000949 µM) of over 10000 nM, an IC50 (second compound 0.003 µM) of over 10000 nM and an IC50 (second compound 0.00949 µM) of over 10000 nM. For the same molecule, the IC50 (second compound 0.03 µM) was over 10000 nM, the IC50 (second compound 0.0949 µM) was over 10000 nM and the IC50 (second compound 0.3 µM) was under 31.6 nM. For the same molecule, the viability, T/C [3] was 77.4%, the viability, T/C [4] was 94% and the viability, T/C [25] was 84.1%. The viability, T/C [26] was 87.6%, the viability, T/C (second compound 0.000949 µM, first compound 3.16 µM) was 108% and the viability, T/C (second compound 0.000949 µM, first compound 10 µM) was 78.5%. It also gave a viability, T/C [7] of 117%, a viability, T/C [8] of 91% and a viability, T/C [27] of 99.6%. The viability, T/C [28] was 85.9%, the viability, T/C (second compound 0.003 µM, first compound 3.16 µM) was 117% and the viability, T/C (second compound 0.003 µM, first compound 10 µM) was 70.1%. For the same molecule, the viability, T/C [11] was 95.3%, the viability, T/C [12] was 83.4% and the viability, T/C [29] was 83.6%. It also gave a viability, T/C [30] of 84.4%, a viability, T/C (second compound 0.00949 µM, first compound 3.16 µM) of 85.6% and a viability, T/C (second compound 0.00949 µM, first compound 10 µM) of 53.1%. For the same molecule, the viability, T/C [15] was 65.8%, the viability, T/C [16] was 71% and the viability, T/C [31] was 76.3%. It also gave a viability, T/C [32] of 72.4%, a viability, T/C (second compound 0.03 µM, first compound 3.16 µM) of 81.3% and a viability, T/C (second compound 0.03 µM, first compound 10 µM) of 55.6%. For the same molecule, the viability, T/C [19] was 56.2%, the viability, T/C [20] was 58.2% and the viability, T/C [33] was 58.4%. It also gave a viability, T/C [34] of 48.7%, a viability, T/C (second compound 0.0949 µM, first compound 3.16 µM) of 72.4% and a viability, T/C (second compound 0.0949 µM, first compound 10 µM) of 51.2%. For the same molecule, the viability, T/C [23] was 36.4%, the viability, T/C [24] was 44.2% and the viability, T/C [35] was 44.4%. It also gave a viability, T/C [36] of 45.4%, a viability, T/C (second compound 0.3 µM, first compound 3.16 µM) of 50.1% and a viability, T/C (second compound 0.3 µM, first compound 10 µM) of 33%.
